Measurements taken from patent US12403168B1, “Method for producing a plant-based extract composition having the effect of enhancing nutrition and immunity” (priority 2024, dated 2025).

Legend:
Type in all cases: in vivo
[1] = system: male (Swiss albino) mice; assay: Leukocyte count and percentage of leukocyte types; details: CY (+) mice, 5th day after CY injection 150 mg/kg i.p.; composition 200 100 mg/kg/day, levamisole 25 mg/kg oral
Description: (§1) Test subjects: the experiment was performed on healthy adult male (Swiss albino) mice, 5-6 weeks old, weighing 25±2 grams. They were nurtured to stabilize for 1 week before conducting the experiment at room temperature (27° C.-28° C.). They were fed with synthetic pellets for mice, and the drinking water was tap water.
(§2) Test sample: the composition 200 which is obtained from the example 1, and the control sample used distilled water.
(§3) Male (Swiss albino) mice were immunodeficient by intraperitoneally administering a single dose of cyclophosphamide (150 mg/kg body weight) on the first day and then orally administering the test samples continuously for 5 days.
(§4) The experiment for immune-enhancing of the composition 200 by arrangement total of 60 male mice was used for experimental (23-25 g) divided into six treatments listed in Table 5 below.
(§5) [formula] • wherein Pcq is the weight of the organ; Pct is the body weight of the mouse at the time of survey. 3) Leukocyte Count and Percentage of Leukocyte Types; • Collected tail vein blood from mice on the 5th day after CY injection. […] On the 14th day, sensitization was induced by tail vein injection with ovalbumin at a dose of 0.5 mg/kg mouse body weight. […] Measure the volume of the mouse paw at 4 hours (V1) and 24 hours (V2) after the second ovalbumin injection. The left paw that was not injected was used as the reference (Vo). Calculate the percentage of mouse paw edema using the formula: […]

[2] = system: male (Swiss albino) mice; assay: Relative weight of organs: liver, spleen, and thymus; details: CY (+) mice, 10th day after cyclophosphamide 150 mg/kg i.p.; composition 200 100 mg/kg/day, levamisole 25 mg/kg oral
Description: as §1, §2, §3, §4
The relative weights of the organs were calculated using the following formula:
as §5

[3] = system: male (Swiss albino) mice; assay: Cellular immune response (delayed hypersensitivity), ovalbumin mouse paw edema; details: CY (+) mice, cyclophosphamide 150 mg/kg i.p., composition 200 100 mg/kg/day, levamisole 25 mg/kg oral
Description: as §1, §2, §3, §4
as §5, with “(Vo).” for “(Vo). Calculate the percentage of mouse paw edema using the formula:”

c1ccc([C@H]2CN3CCSC3=N2)cc1 [levamisole]
% Lymphocyte [1]: 59.56 ± 4.42%
% Monocyte [1]: 14.06 ± 3.64%
% Neutrophil [1]: 10.81 ± 1.18%
relative weight of liver [2]: 5.074 ± 0.189 g %
relative weight of spleen [2]: 0.343 ± 0.031 g %
relative weight of thymus [2]: 0.073 ± 0.013 g %
% V4h, percentage of the mouse paw edema after 4 hours ([3]; 4 hours after second ovalbumin injection): 81.27 ± 7.52%
% V24 h, percentage of the mouse paw edema after 24 hours ([3]; 24 hours after second ovalbumin injection): 38.28 ± 7.12%
